Test results as given in patent publication US8901310B2, “Tricyclic compounds, compositions, and methods” (Pfizer Inc., priority 2007, dated 2014).

Legend:
osteocalcin = experiment: Serum osteocalcin suppression, 28-day repeat dose mouse model; type: in vivo; settings: for Osteocalcin Suppression (ED80 dose): oral gavage 28 days, serum osteocalcin; for Serum osteocalcin (OC) EAUC50 / Serum osteocalcin (OC) EAUC80: data set 2, 28-day repeat dose model
IL-6 = IL-6 production in IL-1β-stimulated A549 cells; type: cell-based, human
Protocol: IL-6 IC50 and % Inhibition
Human A549 lung epithelial cells (American Type Culture Collection, Rockville, Md.) were cultured in Kaighn's F-12K medium with penicillin-streptomycin (10 U/mL) and 10% heat-inactivated fetal bovine serum (all from Invitrogen, Grand Island, N.Y.). A549 cells were plated at a density of 30,000 cells/well in 96-well plates and incubated overnight at 37° C. and with 5% CO2. The cells were serum-starved by replacing the growth medium with serum-free Kaighn's F-12K medium with penicillin-streptomycin (10 U/mL) and, again, incubating overnight at 37° C. and with 5% CO2. On the third day, the medium was replaced with fresh serum-free medium and the cells were incubated with or without compound (vehicle was DMSO at 0.1% maximum concentration) for approximately 1 hour and then stimulated with 1 ng/mL recombinant human IL-1β (R&D Systems, Minneapolis, Minn.) for 20 hours at 37° C. and with 5% CO2. Cell supernatants were collected for determination of IL-6 levels using MSD (Meso Scale Discovery, Gaithersburg, Md.) 96-well Single Spot plates as per the manufacturer's instructions. Plates were read with an MSD Sector Imager 6000. […] Vehicle was used to define the 0% inhibition control. Percent inhibition for each compound concentration, relative to these controls, was calculated using Excel (Microsoft, Redmond, Wash.). […]

[1] = test system: Mouse Collagen-Induced Arthritis; experiment: Therapeutic mouse collagen-induced arthritis (mCIA) model; type: in vivo
Excerpt: (§1) Mouse Collagen-induced arthritis is a commonly used chronic, preclinical model of rheumatoid arthritis in which joint swelling and bone destruction occur following immunization with type II collagen. Reduction of disease incidence and severity has been shown previously to be predictive of disease-modification and signs and symptoms mitigation, respectively, in a clinical setting.
In the therapeutic mCIA model, induction of disease incidence and severity was synchronized via LPS stimulation. Male DBA/J mice were immunized with 100 ug of bovine type II collagen (bCII) on day 0. All mice received an intraperitoneal injection of 20 μg of LPS on day 28 and disease was allowed to develop through day 34. At day 34, all mice had disease (incidence=100%) with an average severity score of seven. Dosing of compounds was initiated in the therapeutic mode on day 34 and continued through day 49. Different treatments were compared by measuring the decrease in incidence (i.e., resolution of disease) and the decrease in severity of paw swelling over time.

[2] = test system: Mouse Collagen-Induced Arthritis; experiment: Traditional mouse collagen-induced arthritis (mCIA) model; type: in vivo
Protocol: as §1
In the traditional mCIA model, male DBA/J mice were immunized with 50 μg chick type II collagen (cCII) in complete Freund's adjuvant and then boosted 21 days later with 50 μg cCII in incomplete Freund's adjuvant. Treatment with compounds was initiated on the morning of the boost and continued for 56 days. The effectiveness of treatment was measured by disease incidence (i.e., number of mice showing any sign of disease) and disease severity, both of which were measured twice a week.

TNFα = experiment: LPS-induced serum TNFα suppression, 28-day repeat dose mouse model; type: in vivo
[3] = test system: cortical bone formation rate; experiment: Cortical bone histomorphometry, bone formation rate (BFR); type: in vivo, mouse
Protocol: Sigma-Aldrich, St. […] Calcein incorporates into the bone mineral and allows measurement of bone formation rate. Calcein was dissolved in 2% sodium bicarbonate. During the tissue harvest, the left tibiae were excised and cleaned for cortical histomorphometry measurements. After all skin and muscle were removed, tibiae were placed in 70% ethanol (4° C.) in the dark for a minimum of 24 hours. Ground transverse sections were used for histomorphometric analysis of cortical bone. Bones were sectioned using a low-speed saw (Isomet, Buehler, Lake Bluff, Ill.) equipped with a diamond wafer blade. The end of each tibia was removed proximal to tibia-fibula synostosis and a […] cross-section was cut. Using a roughened glass plate and a cork, sections were ground to […] until transparent and all labels were distinguishable under a fluorescent microscope. […] Sigma-Aldrich, St. Louis, Mo.). Sections were mounted using Eukitt Quick Mounting Medium (#03989, Sigma-Aldrich, St. Louis, Mo.) after which coverslip was applied. […] Bone formation rate was calculated by the following equation: (Inter-label width/Label interval)*(Labeled perimeter/Bone perimeter). At least five samples were measured from each treatment group in each study.

[4] = Plasma exposure (AUC) in the mouse; type: in vivo
Excerpt: Drug exposure, defined as drug plasma concentrations integrated over time
Due to blood volume sampling limitations in mice, AUC(0-4 hr) values were used to make pharmacodynamic comparisons.

[5] = Solubility and intrinsic dissolution; type: physicochemical; settings: compared with Example 1
[6] = test system: house dust mite-induced BAL inflammatory cell influx; experiment: House dust mite model of asthma, BAL fluid cell infiltration; type: in vivo, mouse; settings: mice, 0.1, 1 and 10 mg/kg, p.o., b.i.d.
[7] = target: full-length glucocorticoid (GR) protein (Homo sapiens (Human), UniProt P04150); experiment: Glucocorticoid receptor fluorescence polarization ligand binding (GRFP) assay
Excerpt: The glucocorticoid receptor fluorescence polarization ligand binding (GRFP) assay is used to evaluate direct binding of testing compounds to full-length glucocorticoid (GR) protein. Reagents for this assay are purchased from Invitrogen in a test kit. A fluorescent labeled GR ligand is used as a fluorescent tracer and test compounds compete with the fluorescent tracer for GR binding. The change in polarization value in the presence of test compounds is due to binding of test compounds to GR and is used to determine IC50 and relative binding affinity of test compounds for GR.

[8] = data set 2, 28-day repeat dose model, unit assumed
[9] = data set 2, 28-day repeat dose model

full-length glucocorticoid (GR) protein, sequence (P04150 whole entry): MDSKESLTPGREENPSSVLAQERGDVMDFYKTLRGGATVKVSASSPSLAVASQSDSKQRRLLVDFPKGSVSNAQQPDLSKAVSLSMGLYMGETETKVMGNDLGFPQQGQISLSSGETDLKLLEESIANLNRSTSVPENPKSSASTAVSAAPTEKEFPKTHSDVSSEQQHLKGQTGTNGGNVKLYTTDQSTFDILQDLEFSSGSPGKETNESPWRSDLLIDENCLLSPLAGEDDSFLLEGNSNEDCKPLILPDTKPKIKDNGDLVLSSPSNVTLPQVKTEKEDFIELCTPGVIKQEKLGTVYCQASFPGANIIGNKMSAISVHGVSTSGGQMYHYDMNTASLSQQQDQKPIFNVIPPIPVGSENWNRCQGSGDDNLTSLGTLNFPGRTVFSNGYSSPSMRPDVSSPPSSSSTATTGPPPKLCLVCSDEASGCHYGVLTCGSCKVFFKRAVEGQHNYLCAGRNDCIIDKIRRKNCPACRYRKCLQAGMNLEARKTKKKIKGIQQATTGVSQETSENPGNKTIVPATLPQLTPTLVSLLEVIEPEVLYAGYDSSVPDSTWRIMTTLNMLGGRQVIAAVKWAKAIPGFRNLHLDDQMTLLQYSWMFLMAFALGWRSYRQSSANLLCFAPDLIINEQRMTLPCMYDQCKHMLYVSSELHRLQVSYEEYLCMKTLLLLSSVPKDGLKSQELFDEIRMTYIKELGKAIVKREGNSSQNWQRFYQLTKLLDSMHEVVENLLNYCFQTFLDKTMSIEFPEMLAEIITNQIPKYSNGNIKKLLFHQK

In the case of `Cc1ccncc1NC(=O)c1ccc2c(c1)CC[C@@H]1C[C@@](O)(C(F)(F)F)CC[C@@]21Cc1ccccc1` [Comparator D, (4βS,7R,8αR)-4β-benzyl-7-hydroxy-N-(4-methylpyridin-3-yl)-7-(trifluoromethyl)-4β,5,6,7,8,8α,9,10-octahydrophenanthrene-2-carboxamide], the “Osteocalcin Suppression (ED80 dose)” value (osteocalcin; mouse) is reported as 3.06 mg/kg.
For `C[C@]12C=CC(=O)C=C1CC[C@@H]1[C@@H]2[C@@H](O)C[C@@]2(C)[C@H]1CC[C@]2(O)C(=O)CO` [Prednisolone], the “IL-6 % Inhibition” value (IL-6; additional result (footnote a)) was 100%, the “Disease severity (therapeutic mCIA) EAUC50” value ([1]; AUC 0-4 hr, mouse) was 0.38 µg·h/mL and the “Disease severity (therapeutic mCIA) EAUC80” value ([1]; AUC 0-4 hr, mouse) was 1.19 µg·h/mL. It also gave a Disease incidence (therapeutic mCIA) EAUC50 ([1]; data set 2) of 0.68 µg·h/mL, a Disease incidence (therapeutic mCIA) EAUC80 ([1]; data set 2) of 1.38 µg·h/mL and a Disease severity (therapeutic mCIA) EAUC50 ([1]; data set 2, unit assumed) of 0.38 µg·h/mL. The Disease severity (therapeutic mCIA) EAUC80 ([1]; data set 2, unit assumed) was 1.19 µg·h/mL, the “Therapeutic mCIA (ED80 dose)” value ([1]; mouse) was 5.5 mg/kg and the “Disease incidence (traditional mCIA) EAUC50” value ([2]; AUC 0-4 hr, mouse) was 0.25 µg·h/mL. The “Disease incidence (traditional mCIA) EAUC80” value ([2]; AUC 0-4 hr, mouse) was 0.60 µg·h/mL, the “Disease incidence (traditional mCIA) EAUC80” value ([2]; data set 2) was 0.50 and the “Serum TNFα EAUC50” value (TNFα; AUC 0-4 hr, mouse) was 0.81 µg·h/mL. For the same compound, the “Serum TNFα EAUC80” value (TNFα; AUC 0-4 hr, mouse) was 0.95 µg·h/mL, the Serum TNFα EAUC50 (TNFα; [8]) was 0.82 µg·h/mL and the Serum TNFα EAUC80 (TNFα; [8]) was 0.95 µg·h/mL. For the same compound, the “TNFα Suppression (ED80 dose)” value (TNFα; mouse, oral gavage 28 days, LPS-induced serum TNFα) was 2.10 mg/kg, the “Serum osteocalcin EAUC50” value (osteocalcin; AUC 0-4 hr, mouse) was 0.56 µg·h/mL and the “Serum osteocalcin EAUC80” value (osteocalcin; AUC 0-4 hr, mouse) was 1.60 µg·h/mL. The Serum osteocalcin (OC) EAUC50 (osteocalcin) was 0.56 µg·h/mL, the Serum osteocalcin (OC) EAUC80 (osteocalcin) was 1.64 µg·h/mL and the “Cortical bone formation rate (BFR) EAUC50” value ([3]; AUC 0-4 hr, mouse) was 0.09 µg·h/mL. The “Cortical bone formation rate (BFR) EAUC80” value ([3]; AUC 0-4 hr, mouse) was 0.60 µg·h/mL, the “Cortical bone formation rate (BFR) EAUC50” value [3, 9] was 0.10 and the “Cortical bone formation rate (BFR) EAUC80” value [3, 9] was 0.66. For the same compound, the “AUC(0-4 hr) as share of AUC(0-24 hr)” value [4] was “more than 95%”.
In the case of `Cc1ncccc1NC(=O)c1ccc2c(c1)C=C[C@@H]1C[C@@](O)(C(F)(F)F)CC[C@@]21Cc1ccccc1` [Comparator I, (4βS,7R,8αS)-4β-benzyl-7-hydroxy-N-(2-methylpyridin-3-yl)-7-(trifluoromethyl)-4β,5,6,7,8,8α-hexahydrophenanthrene-2-carboxamide], the “Osteocalcin Suppression (ED80 dose)” value (osteocalcin; mouse) is reported as greater than 20 mg/kg.
For `Cc1ncccc1NC(=O)c1ccc2c(c1)CC[C@@H]1C[C@@](OP(=O)(O)O)(C(F)(F)F)CC[C@@]21Cc1ccccc1` [Example 2, (2R,4αS,10αR)-4α-benzyl-7-((2-methylpyridin-3-yl)carbamoyl)-2-(trifluoromethyl)-1,2,3,4,4α,9,10,10α-octahydrophenanthren-2-yl dihydrogen phosphate], the “solubility and intrinsic dissolution” value [5] was “enhanced”.
With `Cc1ncccc1NC(=O)c1ccc2c(c1)[C@H](O)C[C@@H]1C[C@@](O)(C(F)(F)F)CC[C@@]21Cc1ccccc1` [Comparator F, (4βS,7R,8αR,10R)-4β-benzyl-7,10-dihydroxy-N-(2-methylpyridin-3-yl)-7-(trifluoromethyl)-4β,5,6,7,8,8α,9,10-octahydrophenanthrene-2-carboxamide] the “Osteocalcin Suppression (ED80 dose)” value (osteocalcin; mouse) was greater than 10 mg/kg.
For `Cc1ncc(NC(=O)c2ccc3c(c2)CC[C@@H]2C[C@@](O)(CCC(F)(F)F)CC[C@@]32Cc2ccccc2)c(C)n1` [Comparator J, (4βS,7S,8αR)-4β-benzyl-N-(2,4-dimethylpyrimidin-5-yl)-7-hydroxy-7-(3,3,3-trifluoropropyl)-4β,5,6,7,8,8α,9,10-octahydrophenanthrene-2-carboxamide], the “Osteocalcin Suppression (ED80 dose)” value (osteocalcin; mouse) was 3.58 mg/kg.
`Cc1ncccc1NC(=O)c1ccc2c(c1)CC[C@@H]1C[C@@](O)(C(F)(F)F)CC[C@@]21Cc1ccccc1` [Example 1, (4βS,7R,8αR)-4β-benzyl-7-hydroxy-N-(2-methylpyridin-3-yl)-7-(trifluoromethyl)-4β,5,6,7,8,8α,9,10-octahydrophenanthrene-2-carboxamide] showed an IC50 (IL-6; IL-1β 1 ng/mL, listed as Example 1 free base) of 0.36 nM, a Disease incidence (therapeutic mCIA) EAUC50 ([1]; data set 2) of 0.12 µg·h/mL and a Disease incidence (therapeutic mCIA) EAUC80 ([1]; data set 2) of 0.33 µg·h/mL. The Disease severity (therapeutic mCIA) EAUC50 ([1]; data set 2, unit assumed) was 0.09 µg·h/mL, the Disease severity (therapeutic mCIA) EAUC80 ([1]; data set 2, unit assumed) was 0.19 µg·h/mL and the “Therapeutic mCIA (ED50 dose)” value ([1]; mouse) was “less than 1 mg/kg”. For the same compound, the “Disease incidence (traditional mCIA) EAUC80” value ([2]; data set 2) was 0.10, the Serum TNFα EAUC50 (TNFα; [8]) was 0.22 µg·h/mL and the Serum TNFα EAUC80 (TNFα; [8]) was 0.33 µg·h/mL. For the same compound, the Serum osteocalcin (OC) EAUC50 (osteocalcin) was 1.31 µg·h/mL, the Serum osteocalcin (OC) EAUC80 (osteocalcin) was 4.15 µg·h/mL and the “cell infiltration into BAL fluid” value [6] was “mitigated cell infiltration into BAL fluid dose-dependently”.
For `Cc1ncccc1NC(=O)c1ccc2c(c1)CC[C@@H]1C[C@@](O)(C(F)F)CC[C@@]21Cc1ccccc1` [Comparator H, (4βS,7R,8αR)-4β-benzyl-7-(difluoromethyl)-7-hydroxy-N-(2-methylpyridin-3-yl)-4β,5,6,7,8,8α,9,10-octahydrophenanthrene-2-carboxamide], the “Osteocalcin Suppression (ED80 dose)” value (osteocalcin; mouse) was 1.46 mg/kg.
`Cc1c(NC(=O)c2ccc3c(c2)CC[C@@H]2C[C@@](O)(C(F)(F)F)CC[C@@]32Cc2ccccc2)ccc[n+]1[O-]` [Comparator G] showed an IC50 [7] of 2.13 nM.
In the case of `Cc1cnc(NC(=O)c2ccc3c(c2)CC[C@@H]2C[C@@](O)(C(F)(F)F)CC[C@@]32Cc2ccccc2)c(C)n1` [Comparator B, (4βS,7R,8αR)-4β-benzyl-N-(3,5-dimethylpyrazin-2-yl)-7-hydroxy-7-(trifluoromethyl)-4β,5,6,7,8,8α,9,10-octahydrophenanthrene-2-carboxamide], the “Osteocalcin Suppression (ED80 dose)” value (osteocalcin; mouse) is reported as greater than 10 mg/kg.
In the case of `Cc1ncccc1NC(=O)c1ccc2c(c1)CC[C@@H]1C[C@@](O)(CCC(F)(F)F)CC[C@@]21Cc1ccccc1` [Comparator C, (4βS,7S,8αR)-4β-benzyl-7-hydroxy-N-(2-methylpyridin-3-yl)-7-(3,3,3-trifluoropropyl)-4β,5,6,7,8,8α,9,10-octahydrophenanthrene-2-carboxamide], the “Osteocalcin Suppression (ED80 dose)” value (osteocalcin; mouse) is reported as 2.84 mg/kg.
For `Cc1ncccc1NC(=O)c1ccc2c(c1)C(=O)C[C@@H]1C[C@@](O)(C(F)(F)F)CC[C@@]21Cc1ccccc1` [Comparator E, (4βS,7R,8αS)-4β-benzyl-7-hydroxy-N-(2-methylpyridin-3-yl)-10-oxo-7-(trifluoromethyl)-4β,5,6,7,8,8α,9,10-octahydrophenanthrene-2-carboxamide], the “Osteocalcin Suppression (ED80 dose)” value (osteocalcin; mouse) was 1.71 mg/kg.
